System: human mitochondrial deformylase
Experiment: Expression of mitochondrial deformylase by Western blotting in antisense-treated HCT 116 cells
Format: cell-based
Settings: 10 micromolar once per day for seven days

Row | Substance | expression of the mitochondrial deformylase as determined by Western blotting
1 | 5′-CAGCGATTTAAATACGGAACAAGG-3′ [oligonucleotide (1)] | significantly reduced expression
2 | 5′-AAAATGCAGGTAAGCATGTGAAAA-3′ [oligonucleotide (2)] | significantly reduced expression
3 | 5′-TCAACTGACTAGATGTACATGGAC-3′ (DNA TCAACTGACTAGATGTACATGGAC; chemistry not given here) [oligonucleotide (3), reference compound] | not observed

From patent US20030003488A1, “Regulation of human mitochondrial deformylase” (priority 1999, published 2003)
